Reference: ChEMBL document CHEMBL1201862, “PubChem BioAssay data set” (2004)
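Step 1: Grow cells in 96-well plates. Step 2: Expose to compound for 48 hours at 5 concentrations. Step 3: Interpolate endpoints linearly; if unreached, use highest concentration. GI50 = concentration required for 50% inhibition of growth.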 The source made the active and inactive calls. No stated cut-off is given here; in the data, active = GI50 up to about 1.1 µM and inactive = higher. Peptide text beside a SMILES is read from it. * marks the point of attachment. Boc = CC(C)(C)OC(=O)*

Key:
Assay in all cases: NCI tumour cell line growth inhibition, 48 h
[1] = system: ACHN
[2] = system: COLO 205
[3] = system: HCC 2998
[4] = system: HT-29
[5] = system: Hs-578T
[6] = system: KM12
[7] = system: M14
[8] = system: MCF7
[9] = system: Malme-3M
[10] = system: NCI-H226
[11] = system: OVCAR-5
[12] = system: SK-MEL-2
[13] = system: SN12C
[14] = system: SNB-75
[15] = system: SW-620
[16] = system: T47D
[17] = system: U-251
[18] = system: NCI-H522
[19] = system: CAKI-1
[20] = system: SR

SMILES	GI50 [1]	GI50 [2]	GI50 [3]	GI50 [4]	GI50 [5]	GI50 [6]	GI50 [7]	GI50 [8]	GI50 [9]	GI50 [10]	GI50 [11]	GI50 [12]	GI50 [13]	GI50 [14]	GI50 [15]	GI50 [16]	GI50 [17]	GI50 [18]	GI50 [19]	GI50 [20]
Cn1c2ccccc2c(=O)c2cccc(C(=O)NC(CCCNC(=N)N)C(=O)O)c21 (configuration not stated)	> 100 µM (inactive)	> 100 µM (inactive)	> 100 µM (inactive)	> 100 µM (inactive)	> 100 µM (inactive)	> 100 µM (inactive)	> 100 µM (inactive)	> 100 µM (inactive)	> 100 µM (inactive)	> 100 µM (inactive)	> 100 µM (inactive)	> 100 µM (inactive)	> 100 µM (inactive)	> 100 µM (inactive)	> 100 µM (inactive)	> 100 µM (inactive)	> 100 µM (inactive)			
NC(N)=NCCC[C@H](N)C(=O)NCC(=O)N[C@@H](CC(=O)O)c1ncc(NC(=O)C(F)(F)F)o1	> 25 µM (inactive)	> 25 µM (inactive)	17.8 µM (inactive)	> 25 µM (inactive)	> 25 µM (inactive)	> 25 µM (inactive)	> 25 µM (inactive)	> 25 µM (inactive)	> 25 µM (inactive)	> 25 µM (inactive)	> 25 µM (inactive)	> 25 µM (inactive)		> 25 µM (inactive)	> 25 µM (inactive)	> 25 µM (inactive)	> 25 µM (inactive)	> 25 µM (inactive)		
COc1ccc(OCc2nc3cc(C(F)(F)F)ccc3nc2-c2ccccc2)cc1	> 100 µM (inactive)	> 100 µM (inactive)	> 100 µM (inactive)	> 100 µM (inactive)	> 100 µM (inactive)	> 100 µM (inactive)	> 100 µM (inactive)	> 100 µM (inactive)	> 100 µM (inactive)	> 100 µM (inactive)	> 100 µM (inactive)	> 100 µM (inactive)	> 100 µM (inactive)	> 100 µM (inactive)	> 100 µM (inactive)	13.5 µM (inactive)	> 100 µM (inactive)		> 100 µM (inactive)	
CCOCC(NC(=O)C(CC(C)C)NC(=O)OC(C)(C)C)C(N)=O (stereo not drawn) (Boc-Leu-Ser(Et)-NH2; configuration not given here)	> 100 µM (inactive)	> 100 µM (inactive)		> 100 µM (inactive)	> 100 µM (inactive)	> 100 µM (inactive)	> 100 µM (inactive)	> 100 µM (inactive)	> 100 µM (inactive)	> 100 µM (inactive)	> 100 µM (inactive)	> 100 µM (inactive)	> 100 µM (inactive)	0.11 µM (active)	1.59 µM (inactive)	> 100 µM (inactive)	1.46 µM (inactive)	> 100 µM (inactive)	> 100 µM (inactive)	
C[N+](C)(C)CCCSc1nc2ccccc2[nH]1	> 100 µM (inactive)	> 100 µM (inactive)	> 100 µM (inactive)	> 100 µM (inactive)	> 100 µM (inactive)	> 100 µM (inactive)	> 100 µM (inactive)	> 100 µM (inactive)	> 100 µM (inactive)	> 100 µM (inactive)	89.7 µM (inactive)	> 100 µM (inactive)	> 100 µM (inactive)		> 100 µM (inactive)	> 100 µM (inactive)	> 100 µM (inactive)	> 100 µM (inactive)	> 100 µM (inactive)	
NC(=O)/N=C1\NCCC(=O)N1CCc1c[nH]c2ccccc12	21.5 µM (inactive)	14.1 µM (inactive)	19.4 µM (inactive)	17.1 µM (inactive)	20.5 µM (inactive)	37.8 µM (inactive)	14.8 µM (inactive)		18.4 µM (inactive)	18.2 µM (inactive)	39.4 µM (inactive)	14.2 µM (inactive)	21.9 µM (inactive)	10.2 µM (inactive)	26.7 µM (inactive)	27.5 µM (inactive)	45.2 µM (inactive)	25.7 µM (inactive)	0.426 µM (active)	25.8 µM (inactive)
